Measured values: US20240190880A1 (THE REGENTS OF THE UNIVERSITY OF MICHIGAN, priority 2021, published 2024)

Molecular target: T1, ER (Homo sapiens, UniProt P03372)
T1 construct: host or cells: T47D and MCF7 human breast cancer cells
T1 sequence (P03372 1-595): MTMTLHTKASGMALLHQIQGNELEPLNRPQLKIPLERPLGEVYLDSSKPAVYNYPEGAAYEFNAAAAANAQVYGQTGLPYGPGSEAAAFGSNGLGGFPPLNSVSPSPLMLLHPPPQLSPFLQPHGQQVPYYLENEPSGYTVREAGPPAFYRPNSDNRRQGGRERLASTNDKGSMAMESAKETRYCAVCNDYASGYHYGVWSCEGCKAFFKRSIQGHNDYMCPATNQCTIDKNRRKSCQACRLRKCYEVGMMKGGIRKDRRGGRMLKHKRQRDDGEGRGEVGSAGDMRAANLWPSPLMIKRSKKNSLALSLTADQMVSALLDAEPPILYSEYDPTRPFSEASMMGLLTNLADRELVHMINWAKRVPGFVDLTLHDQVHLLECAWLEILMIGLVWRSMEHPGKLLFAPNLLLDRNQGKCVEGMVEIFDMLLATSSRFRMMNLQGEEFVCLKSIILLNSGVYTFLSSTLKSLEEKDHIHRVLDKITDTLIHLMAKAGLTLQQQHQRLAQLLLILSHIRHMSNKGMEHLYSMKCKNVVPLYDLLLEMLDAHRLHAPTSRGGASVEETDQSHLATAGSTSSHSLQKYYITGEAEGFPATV
Assay: ER degradation activity, in-cell western blot analysis in T47D cells
Type: cell-based
Details: 16 hours, Table A does not say which cell line (T47D or MCF7), read-out: Potency (DC50)
Experimental: ER degradation activity was evaluated in the human breast cancer cell line T47D and MCF7 purchased from the American Type Culture Collection (ATCC), Manassas, VA, and maintained and cultured in Dulbecco's Modified Eagle's medium (DMEM) containing 10% fetal bovine serum, 1 unit/ml of penicillin and 1 μg/ml of streptomycin.
The protocol for the in-cell western blot analysis: a. seed cells in black-sided/clear bottom 96- or 384-well plates at 40,000 or 10,000 cells/well, overnight; b. add diluted compounds (final 0.5% DMSO), 16 hours. […] RT 2 h, gentle shaking. Negative control: cells plus secondary antibodies (no primary antibodies); e. wash ×4 with PBS+0.05-0.1% Tween 20, gentel shaking; f. anti-rabbit-680 and anti-mouse-800 (both 1:1000 in LiCor block+0.05% Tween20, RT 1 h, gentle shaking, no light. LI-COR: 0.2% to reduce background; g. wash×4 with PBS+0.05% Tween 20, gental shaking; h. add 100 μL or 25 μL of PBS to each well and read on CLX plate reader. The relative ER percentage in treated cells were obtained by comparing the values of treated wells to those in untreated and DMSO-treated wells as 100%.

Row | Compound | DC50 [nM]
1 | O=C1CCC(N2C(=O)c3cc4c(cc3C2=O)CN(C(=O)CN2CCC3(CC2)CCN(c2ccc([C@@H]5c6ccc(O)cc6CC[C@@H]5c5ccccc5)cc2)CC3)C4)C(=O)N1 (mixture of isomers) [E 126, Rac-2-(2,6-dioxopiperidin-3-yl)-6-(2-(9-(4-((1R,2S)-6-hydroxy-2-phenyl-1,2,3,4-tetrahydronaphthalen-1-yl)phenyl)-3,9-diazaspiro[5.5]undecan-3-yl)acetyl)-6,7-dihydropyrrolo[3,4-f]isoindole-1,3(2H,5H)-dione] | 10 to 100
2 | O=C1CCC(N2C(=O)c3cc4c(cc3C2=O)CN(C(=O)CN2CC3(CCN(c5ccc([C@@H]6c7ccc(O)cc7CC[C@@H]6c6ccc(F)cc6)cc5)CC3)C2)C4)C(=O)N1 (mixture of isomers) [E 127, 2-(2,6-dioxopiperidin-3-yl)-6-(2-(7-(4-((1R,2S)-2-(4-fluorophenyl)-6-hydroxy-1,2,3,4-tetrahydronaphthalen-1-yl)phenyl)-2,7-diazaspiro[3.5]nonan-2-yl)acetyl)-6,7-dihydropyrrolo[3,4-f]isoindole-1,3(2H,5H)-dione] | 10 to 100
3 | O=C1CCC(N2C(=O)c3cc4c(cc3C2=O)CN(C(=O)CN2CCC3(CCN(c5ccc([C@@H]6c7ccc(O)cc7CC[C@@H]6c6ccccc6)cc5)CC3)C2)C4)C(=O)N1 (mixture of isomers) [E 140, Rac-2-(2,6-dioxopiperidin-3-yl)-6-(2-(8-(4-((1R,2S)-6-hydroxy-2-phenyl-1,2,3,4-tetrahydronaphthalen-1-yl)phenyl)-2,8-diazaspiro[4.5]decan-2-yl)acetyl)-6,7-dihydropyrrolo[3,4-f]isoindole-1,3(2H,5H)-dione] | > 100
4 | O=C1CCC(N2C(=O)c3cc4c(cc3C2=O)CN(C(=O)CN2CCC3(CC2)CCN(c2ccc([C@@H]5c6ccc(O)cc6CC[C@@H]5c5ccc(F)cc5)cc2)C3)C4)C(=O)N1 (mixture of isomers) [E 152, Rac-2-(2,6-dioxopiperidin-3-yl)-6-(2-(2-(4-((1R,2S)-2-(4-fluorophenyl)-6-hydroxy-1,2,3,4-tetrahydronaphthalen-1-yl)phenyl)-2,8-diazaspiro[4.5]decan-8-yl)acetyl)-6,7-dihydropyrrolo[3,4-f]isoindole-1,3(2H,5H)-dione] | > 100
5 | O=C1CCC(N2C(=O)c3cc4c(cc3C2=O)CN(C(=O)CN2CCC3(CC2)CCN(c2ccc([C@@H]5c6ccc(O)cc6CC[C@@H]5c5ccccc5)c(F)c2)C3)C4)C(=O)N1 (mixture of isomers) [E 153, Rac-2-(2,6-dioxopiperidin-3-yl)-6-(2-(2-(3-fluoro-4-((1S,2S)-6-hydroxy-2-phenyl-1,2,3,4-tetrahydronaphthalen-1-yl)phenyl)-2,8-diazaspiro[4.5]decan-8-yl)acetyl)-6,7-dihydropyrrolo[3,4-f]isoindole-1,3(2H,5H)-dione] | > 100
6 | O=C1CCC(N2C(=O)c3cc4c(cc3C2=O)CN(CC2CCN(C(=O)C3CN(c5ccc([C@@H]6c7ccc(O)cc7CC[C@@H]6c6ccccc6)cc5)C3)CC2)C4)C(=O)N1 (mixture of isomers) [E 156, Rac-2-(2,6-dioxopiperidin-3-yl)-6-((1-(1-(4-((1R,2S)-6-hydroxy-2-phenyl-1,2,3,4-tetrahydronaphthalen-1-yl)phenyl)azetidine-3-carbonyl)piperidin-4-yl)methyl)-6,7-dihydropyrrolo[3,4-f]isoindole-1,3(2H,5H)-dione] | 10 to 100

Continued, values first:

Row | DC50 [nM] | Compound
7 | 10 to 100 | O=C1CCC(N2C(=O)c3cc4c(cc3C2=O)CN(C2CCC(C(=O)N3CCCC(Oc5ccc([C@@H]6c7ccc(O)cc7CC[C@@H]6c6ccccc6)cc5)C3)CC2)C4)C(=O)N1 (mixture of isomers) [E 23, Rac-2-(2,6-dioxopiperidin-3-yl)-6-(4-(3-(4-((1R,2S)-6-hydroxy-2-phenyl-1,2,3,4-tetrahydronaphthalen-1-yl)phenoxy)piperidine-1-carbonyl)cyclohexyl)-6,7-dihydropyrrolo[3,4-f]isoindole-1,3(2H,5H)-dione]
8 | 10 to 100 | O=C1CCC(N2C(=O)c3cc4c(cc3C2=O)CN(C(=O)c2ccc(CC(=O)N3CCCC(Oc5ccc([C@@H]6c7ccc(O)cc7CC[C@@H]6c6ccccc6)cc5)C3)cc2)C4)C(=O)N1 (mixture of isomers) [E 24, Rac-2-(2,6-dioxopiperidin-3-yl)-6-(4-(2-(3-(4-((1R,2S)-6-hydroxy-2-phenyl-1,2,3,4-tetrahydronaphthalen-1-yl)phenoxy)piperidin-1-yl)-2-oxoethyl)benzoyl)-6,7-dihydropyrrolo[3,4-f]isoindole-1,3(2H,5H)-dione]
9 | 10 to 100 | O=C1CCC(N2C(=O)c3cc4c(cc3C2=O)CN(C(=O)CN2CC3(CCN(c5ccc([C@@H]6c7ccc(O)cc7CC[C@@H]6c6ccccc6)cc5)CC3)C2)C4)C(=O)N1 (mixture of isomers) [E 125, Rac-2-(2,6-dioxopiperidin-3-yl)-6-(2-(7-(4-((1R,2S)-6-hydroxy-2-phenyl-1,2,3,4-tetrahydronaphthalen-1-yl)phenyl)-2,7-diazaspiro[3.5]nonan-2-yl)acetyl)-6,7-dihydropyrrolo[3,4-f]isoindole-1,3(2H,5H)-dione]
10 | 10 to 100 | O=C1CCC(N2C(=O)c3cc4c(cc3C2=O)CN(CC(=O)N2CCC3(CC2)CCN(c2ccc([C@@H]5c6ccc(O)cc6CC[C@@H]5c5ccccc5)cc2)C3)C4)C(=O)N1 (mixture of isomers) [E 139, Rac-2-(2,6-dioxopiperidin-3-yl)-6-(2-(2-(4-((1R,2S)-6-hydroxy-2-phenyl-1,2,3,4-tetrahydronaphthalen-1-yl)phenyl)-2,8-diazaspiro[4.5]decan-8-yl)-2-oxoethyl)-6,7-dihydropyrrolo[3,4-f]isoindole-1,3(2H,5H)-dione]
11 | > 100 | O=C1CCC(N2C(=O)c3cc4c(cc3C2=O)CN(C(=O)CN2CCC3(CC2)CCN(c2ccc([C@@H]5c6ccc(O)cc6CC[C@@H]5c5ccccc5)cc2)C3)C4)C(=O)N1 (mixture of isomers) [E 141, Rac-2-(2,6-dioxopiperidin-3-yl)-6-(2-(2-(4-((1R,2S)-6-hydroxy-2-phenyl-1,2,3,4-tetrahydronaphthalen-1-yl)phenyl)-2,8-diazaspiro[4.5]decan-8-yl)acetyl)-6,7-dihydropyrrolo[3,4-f]isoindole-1,3(2H,5H)-dione]
12 | > 100 | O=C1CCC(N2C(=O)c3cc4c(cc3C2=O)CN(C(=O)CN2CCC3(CC2)CN(c2ccc([C@@H]5c6ccc(O)cc6CC[C@@H]5c5ccccc5)cc2)C3)C4)C(=O)N1 (mixture of isomers) [E 150, Rac-2-(2,6-dioxopiperidin-3-yl)-6-(2-(2-(4-((1R,2S)-6-hydroxy-2-phenyl-1,2,3,4-tetrahydronaphthalen-1-yl)phenyl)-2,7-diazaspiro[3.5]nonan-7-yl)acetyl)-6,7-dihydropyrrolo[3,4-f]isoindole-1,3(2H,5H)-dione]
13 | > 100 | O=C1CCC(N2C(=O)c3cc4c(cc3C2=O)CN(C(=O)CN2CCC3(CC2)CCN(c2ccc([C@@H]5c6ccc(O)cc6CC[C@@H]5c5ccccc5)cc2F)C3)C4)C(=O)N1 (mixture of isomers) [E 154, Rac-2-(2,6-dioxopiperidin-3-yl)-6-(2-(2-(2-fluoro-4-((1R,2S)-6-hydroxy-2-phenyl-1,2,3,4-tetrahydronaphthalen-1-yl)phenyl)-2,8-diazaspiro[4.5]decan-8-yl)acetyl)-6,7-dihydropyrrolo[3,4-f]isoindole-1,3(2H,5H)-dione]
14 | > 100 | O=C1CCC(N2C(=O)c3cc4c(cc3C2=O)CN(C(=O)CN2CCC3(CC2)CCN(c2c(F)cc([C@@H]5c6ccc(O)cc6CC[C@@H]5c5ccccc5)cc2F)C3)C4)C(=O)N1 (mixture of isomers) [E 155, Rac-6-(2-(2-(2,6-difluoro-4-((1R,2S)-6-hydroxy-2-phenyl-1,2,3,4-tetrahydronaphthalen-1-yl)phenyl)-2,8-diazaspiro[4.5]decan-8-yl)acetyl)-2-(2,6-dioxopiperidin-3-yl)-6,7-dihydropyrrolo[3,4-f]isoindole-1,3(2H,5H)-dione]
15 | > 100 | O=C1CCC(N2C(=O)c3cc4c(cc3C2=O)CN(CC2CN(C(=O)C3CN(c5ccc([C@@H]6c7ccc(O)cc7CC[C@@H]6c6ccccc6)cc5)C3)C2)C4)C(=O)N1 (mixture of isomers) [E 158, Rac-2-(2,6-dioxopiperidin-3-yl)-6-((1-(1-(4-((1R,2S)-6-hydroxy-2-phenyl-1,2,3,4-tetrahydronaphthalen-1-yl)phenyl)azetidine-3-carbonyl)azetidin-3-yl)methyl)-6,7-dihydropyrrolo[3,4-f]isoindole-1,3(2H,5H)-dione]
